Data on 8 molecules can be found in patent US20050169928A1, “Antibodies which bind to proteins involved in cytoadhesion of plasmodlum falciparum ring-stage-infected erythrocytes” (INSTITUT PASTEUR, priority 2000, published 2005).

Holding throughout (format): cell-based, P. falciparum
The test system of test [1] is ring-stage PA^CSA IE cytoadhesion to SBEC 1D. Description: Ring-stage IE cytoadhesion inhibition assay on SBEC 1D (Example 1). Particulars: for inhibitory activity on ring-stage IE cytoadhesion to SBEC 1D (in words): ring-stage PA^CSA IE 8 hours post-invasion, glycosaminoglycans, enzymes on target cells, thrombospondin; for sensitivity of ring-stage IE^CSA cytoadhesion to inhibitor: 0.1 mg/ml CSA, or target cells pretreated with 1 U/ml chondroitinase ABC, until the 16th hour after invasion; for time after invasion of maximal inhibition of IE^CSA binding: highly synchronized PA^CSA IE tested every 4 hours throughout the cycle. On the procedure: Gelatin-enriched preparations of mature-stage IE were resuspended at a concentration of 5×10^6 IE/ml in cytoadhesion medium at pH 6.8. Cytoadhesion microassays were then performed on 12-well IFA slides (Institut Pasteur, Paris) as previously described (Pouvelle, B. Fusai, T. Lepolard, C. & Gysin, J. biological and biochemical characteristics of cytoadhesion of Plasmodium falciparum-infected erythrocytes to chondroitin-4-sulfate. Infect. Immun. 66, 4950-4956 (1998)).
Ring-stage cytoadhesion assays were performed with endothelial cells as described above and with placental cryosections as previously described (Gysin, J., Pouvelle, B., Le Tonqueze, M., Edelman, L. & Boffa, M. C., Chondroitin sulfate of thrombomodulin is an adhesion receptor for Plasmodium falciparum-infected erythrocyics. Mol. Biochem. Parasitol. 88, 267-271 (1997)), with 1 to 10% parasitaemia (a 1×10^7 IE/ml suspension).
For cytoadhesion inhibition assays, the IE were incubated with SBEC in the presence of 2.5 μg/ml thrombospondin, 0.1 mg/ml soluble CSA, dermatan sulphate (CSB), chondroitin-6-sulphate (CSC), keratin sulphate (Ker), hyaluronic acid (HA), heparin (Hep) (Fluka, France), or with SBEC previously incubated for 1 hour at 37° C. with 1 U/ml chondrotinase ABC (Fluka, France), 1 to 10 U/ml heparinase III (Hepase III) (Sigma, France) or 5 μg/ml anti-CD36 FA6-152 Mab (gift from Dr. Edelman). Inhibition assays were also carried out in the presence of sera obtained from Senegalese and Cameroonian patients living in areas of endemic malaria. The sera were obtained from primigravida and multigravida women, an adult and a child, absorbed onto O^+ human blood and SBEC ID, and tested at a dilution of 1/20. The results were compared to those for cytoadhesion in the presence of a 1/20 dilution of a pool of control sera from volunteers who had never contacted malaria.
The protease sensitivity of ring-stage IE cytoadhesion was analyzed using 5 μl of packed PA^CSA IE (8 hours post-invasion). IE were incubated with 10 or 100 μg/ml of trypsin TPCK (Signa) or 100 μg/ml of α-chymotrypsin TLCK (Sigma) for 30 minutes at 37° C. The digestion was stopped by adding culture medium containing 10% human plasma. The cells were then washed in cytoadhesion medium and allowed to cytoadhere to SBEC 1D, as previously described, using untreated PA^CSA as a control.

The test system of test [2] is cytoadhesion of IE on endothelial cells or placenta cryosections. Description: Stage-specific cytoadhesion inhibition on endothelial cells or placenta cryosections (discussion). On the procedure:
Cytoadhesion inhibition and disruption assays were performed on SBEC 1D cells grown to confluence on 12-dot IFA slides as described elsewhere (Pouvelle, B., P. Meyer, C. Robert, L. Bardel and J. Gysin. 1997. Chondroitin-4-sulfate impairs in vitro and in vivo cytoadherence of Plasmodium falciparum infected erythrocytes. Mol Med. 3:508-18) by assessing the laboratory CSA-binding strains FCR3, FCBR, BXII, SUK, HB, IBR and the placenta isolates no. 24, 42,42DJ, 193 and 939. In short: 20 μl of a mixture of synchronized rIE with nE or mIE from corresponding cultures at a parasitaemia of 4-15% for a total 10^7 IE/ml RPMI 1640, pH6.8 were layered per dot of confluent SBEC 1D cells. For the inhibition assay, 20 μl of each mAb at a concentration of 0.2 to 200 μg/ml was deposited simultaneously with rIE or IE and corresponding nE/dot for 2 hours at +37° C. For the disruption assay the same mAbs were added after a one hour preincubation of IEs and nEs with endothelial cells for an additional 1 hour. Unbound erythrocytes were removed by vigorously washing the slides in RPMI 1640, pH6.8. Bound IE and nE were fixed with 0.25% glutaraldehyde in PBS pH7.2. The inhibition and disruption of cytoadhesion was expressed as bound IE and nE/mm^2 of confluent endothelial cells in the presence of mAbs, in comparison to unrelated mouse IgG of the same IgG isotype (Sigma, USA). […]

The test system of test [3] is adherent rIE^CSA/nE and mature IE^CSA on SBEC 1D. Description: Cytoadhesion inhibition and desequestration under flow conditions at 0.05 Pa. The note with it: B4 200 μg/ml, CSA 10 μg/ml final.
Experimental: In short: Four serial 7 μm normal human placenta cryosections (each of approximately 4 mm×4 mm) of the maternal compartment were mounted on a microscopic slide 75-25 mm and fixed with 0.5% para-formaldehyde in PBS at pH 7.2, for 2 hours at room temperature. After washing several times with PBS and then with RPMI 1640 pH 6.8, the slide is mounted on a perfusing chamber (Immunetics, France). An equipart mixture of 8±4 hours old synchronized rIE^CSA (including nE from the same culture) and 34±4 hours old IE^CSA at a final hematocrit of 25% in RPMI 1640, pH 7.2 were then flow through the chamber for 10 min at 0.05 Pascals. After rinsing for 10 min with the medium at the same shear stress, 100 ug/ml of a 50 kDa CSA (Fluka, France) dissolved in RPMI or 200 ug/ml of mAbs was flushed through the chamber for 10 min at the same shear stress. Slides from 3 experiments were recovered and stained by Giemsa. Mature IE, rIE and nE were counted and the result expressed as arithmetic mean percentage of bound erythrocytes±SD/20 fields of 100× Oil magnification as described elsewhere (Gysin, J., B. Pouvelle, N. Fievet, A. Scherf, and C. Lepolard. 1999. Ex vivo desequestration of Plasmodium falciparum-infected erythrocytes from human placenta by chondroitin sulfate A. Infect Immun. 67:6596-602).

For hyaluronate lyase, the “inhibitory activity on ring-stage IE cytoadhesion to SBEC 1D (in words)” value (“inhibitory activity” for short) in test [1] was “low level of inhibitory activity”.
On the same count and under the same terms, under dermatan-sulphate stands “not specific”; under hyaluronic acid, “no activity”.
For heparin, the “inhibition of ring-stage cytoadhesion” value in test [1] (Heparin 100 μg/ml, heparinase treatment of target cells, SBEC 1D) is “about 50%”.
chondroitinase ABC: in test [1], the “sensitivity of ring-stage IE^CSA cytoadhesion to inhibitor” value is reported as “insensitive”, the “time after invasion of maximal inhibition of IE^CSA binding” value was 24 h and the “inhibitory activity” value was “no significant inhibitory activity”.
As to “Thrombospondin: mature-stage IE adhesion receptor protein tested at 2.5 μg/ml”, the “inhibitory activity” value in test [1] is reported as “no effect”.
On to chondroitin-sulphate A [CSA], for which, in test [1], the “sensitivity of ring-stage IE^CSA cytoadhesion to inhibitor” value is on record as “insensitive” and the “time after invasion of maximal inhibition of IE^CSA binding” value was determined as 24 h. Further, the “inhibition of cytoadhesion of mature blood stages” value in test [2] (mature blood stages) is > 90%. Further, the “inhibition of cytoadhesion of young trophozoites” value in test [2] (young trophozoites (16-20 hours), RSP-2 and PfEMP1 both expressed) was ≤ 25%. Also, in test [3], the “desequestration of adherent mature IE^CSA by flushing” value is “removed only the mature forms”.

B1: trypsin: protease used to treat ring-stage IE (protein, UniProt P00760 24-246, looked up)
Serine protease 1: IVGGYTCGANTVPYQVSLNSGYHFCGGSLINSQWVVSAAHCYKSGIQVRLGEDNINVVEGNEQFISASKSIVHPSYNSNTLNNDIMLIKLKSAASLNSRVASISLPTSCASAGTQCLISGWGNTKSSGTSYPDVLKCLKAPILSDSSCKSAYPGQITSNMFCAGYLEGGKDSCQGDSGGPVVCSGKLQGIVSWGSGCAQKNKPGVYTKVCNYVSWIKQTIASN
modifications: TPCK-treated
notes: protease used to treat ring-stage IE
Turning to B1, in test [1] (protease concentration 100 μg/ml), the “inhibition of ring-stage IE adhesion after protease treatment of IE” value is reported as “substantially inhibited”.
